Source: PubChem BioAssay (NCI)
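Exposure lasted 48 hours, with cells grown in 96-well plates and compounds tested at five concentrations. GI50 marks 50% less growth. TGI: total growth inhibition.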

Legend:
Test in all cases: NCI tumour cell line growth inhibition, 48 h
MDA-MB-468 breast = tested on: MDA-MB-468 breast
786-0 renal = tested on: 786-0 renal
A549 NSCLC = tested on: A549 NSCLC
ACHN renal = tested on: ACHN renal
BT-549 breast = tested on: BT-549 breast
CAKI-1 renal = tested on: CAKI-1 renal
CCRF-CEM leukemia = tested on: CCRF-CEM leukemia
COLO 205 colon = tested on: COLO 205 colon
DU-145 prostate = tested on: DU-145 prostate
EKVX NSCLC = tested on: EKVX NSCLC
HCC-2998 colon = tested on: HCC-2998 colon
HCT-116 colon = tested on: HCT-116 colon
HCT-15 colon = tested on: HCT-15 colon
HL-60(TB) leukemia = tested on: HL-60(TB) leukemia
HOP-62 NSCLC = tested on: HOP-62 NSCLC
HOP-92 NSCLC = tested on: HOP-92 NSCLC
HS 578T breast = tested on: HS 578T breast
HT29 colon = tested on: HT29 colon
K-562 leukemia = tested on: K-562 leukemia
KM12 colon = tested on: KM12 colon
LOX IMVI melanoma = tested on: LOX IMVI melanoma
M14 melanoma = tested on: M14 melanoma
MALME-3M melanoma = tested on: MALME-3M melanoma
MDA-MB-435 = tested on: MDA-MB-435
MOLT-4 leukemia = tested on: MOLT-4 leukemia
NCI-H23 lung = tested on: NCI-H23 lung
NCI-H522 lung = tested on: NCI-H522 lung
OVCAR-3 ovarian = tested on: OVCAR-3 ovarian
OVCAR-4 ovarian = tested on: OVCAR-4 ovarian
OVCAR-5 ovarian = tested on: OVCAR-5 ovarian
OVCAR-8 ovarian = tested on: OVCAR-8 ovarian
PC-3 prostate = tested on: PC-3 prostate
RPMI-8226 leukemia = tested on: RPMI-8226 leukemia
RXF 393 renal = tested on: RXF 393 renal
SF-268 CNS = tested on: SF-268 CNS
SF-295 CNS = tested on: SF-295 CNS
SF-539 CNS = tested on: SF-539 CNS
SK-MEL-2 melanoma = tested on: SK-MEL-2 melanoma
SK-OV-3 ovarian = tested on: SK-OV-3 ovarian
SN12C renal = tested on: SN12C renal
SNB-19 CNS = tested on: SNB-19 CNS
SNB-75 CNS = tested on: SNB-75 CNS
SR leukemia = tested on: SR leukemia
SW-620 colon = tested on: SW-620 colon
T-47D breast = tested on: T-47D breast
UACC-62 melanoma = tested on: UACC-62 melanoma

COc1ccc2c(c1)c(CC(=O)[Se]C)c(C)n2C(=O)c1ccc(Cl)cc1
GI50 (MDA-MB-468 breast): > 419 nM | TGI (MDA-MB-468 breast): > 681 nM

Cc1cc([N+](=O)[O-])c(NS(=O)(=O)c2cccc(C(=O)O)c2)cc1-c1cccnc1
GI50 (MDA-MB-468 breast): > 100000 nM | TGI (MDA-MB-468 breast): > 100000 nM

Cc1cc(NC(=O)NC(=O)c2ccccc2NC(=O)C(C)N)ccc1Oc1ncc(Br)cn1 (stereo not given)
GI50 (MDA-MB-468 breast): < 10 nM | TGI (MDA-MB-468 breast): 28500 nM

O=C1c2c(c3c4cc(Br)ccc4[nH]c3c3ccc4ccccc4c23)C(=O)N1CCN1CCNCC1
GI50 (MDA-MB-468 breast): 1800 nM | TGI (MDA-MB-468 breast): 4480 nM

Cc1[nH]c2ccccc2c1CCCO
GI50 (MDA-MB-468 breast): > 100000 nM | TGI (MDA-MB-468 breast): > 100000 nM

CC1=C(C(=O)Nc2ccc3n[nH]c(C)c3c2)C(c2ccc(C(F)(F)F)cc2)CC(=O)N1 (stereo not given)
GI50 (MDA-MB-468 breast): 7090 nM | TGI (MDA-MB-468 breast): > 25000 nM

CCNCCCn1c2c(c3ccc(Cl)cc3c1=O)C(=O)c1cc(OC)cnc1-2
GI50 (MDA-MB-468 breast): 249 nM | TGI (MDA-MB-468 breast): 4300 nM

COc1ccc(C/C(C)=C(/c2ccc(OCCN3CCCCC3)cc2)c2ccc(OC(=O)NCc3ccccc3)cc2)cc1
GI50 (MDA-MB-468 breast): 400 nM | TGI (MDA-MB-468 breast): 789 nM

COc1ccc2c(c1)NC1=C(C(=O)OC1)C2c1cc(OC)c2c(c1)OCO2 (stereo not given)
GI50 (MDA-MB-468 breast): < 15.4 nM | TGI (MDA-MB-468 breast): 61 nM

CN1CCN(C(=O)Oc2cc3c(c4ccccc24)[C@H](CCl)CN3C(=O)c2cc3cc(OCCCN4CCC4)ccc3[nH]2)[C@@H]2CSSC[C@H]21
GI50 (786-0 renal): 13.1 nM | TGI (786-0 renal): 40 nM | GI50 (A549 NSCLC): 1.79 nM | TGI (A549 NSCLC): > 10000 nM | GI50 (ACHN renal): 2.37 nM | TGI (ACHN renal): 7.23 nM | GI50 (BT-549 breast): 21.3 nM | TGI (BT-549 breast): 81.8 nM | GI50 (CAKI-1 renal): 2.82 nM | TGI (CAKI-1 renal): > 10000 nM | GI50 (CCRF-CEM leukemia): 7.41 nM | TGI (CCRF-CEM leukemia): 3320 nM | GI50 (COLO 205 colon): 14.8 nM | TGI (COLO 205 colon): 33.8 nM | GI50 (DU-145 prostate): 3.91 nM | TGI (DU-145 prostate): 2440 nM | GI50 (EKVX NSCLC): 12.2 nM | TGI (EKVX NSCLC): 40.6 nM | GI50 (HCC-2998 colon): 3.47 nM | TGI (HCC-2998 colon): 15.2 nM | GI50 (HCT-116 colon): 6.75 nM | TGI (HCT-116 colon): > 10000 nM | GI50 (HCT-15 colon): 3.82 nM | TGI (HCT-15 colon): 24.2 nM | GI50 (HL-60(TB) leukemia): 9.94 nM | TGI (HL-60(TB) leukemia): 321 nM | GI50 (HOP-62 NSCLC): 5.17 nM | TGI (HOP-62 NSCLC): 60.1 nM | GI50 (HOP-92 NSCLC): 18.2 nM | TGI (HOP-92 NSCLC): 62.9 nM | GI50 (HS 578T breast): 27.9 nM | TGI (HS 578T breast): 124 nM | GI50 (HT29 colon): 8.29 nM | TGI (HT29 colon): > 10000 nM | GI50 (K-562 leukemia): 4.4 nM | TGI (K-562 leukemia): > 10000 nM | GI50 (KM12 colon): 15.7 nM | TGI (KM12 colon): 1520 nM | GI50 (LOX IMVI melanoma): 2.2 nM | TGI (LOX IMVI melanoma): 15.8 nM | GI50 (M14 melanoma): 5.63 nM | TGI (M14 melanoma): 21.2 nM | GI50 (MALME-3M melanoma): 6.37 nM | TGI (MALME-3M melanoma): 20 nM | GI50 (MDA-MB-435): 12.7 nM | TGI (MDA-MB-435): 38.1 nM | GI50 (MDA-MB-468 breast): 2.55 nM | TGI (MDA-MB-468 breast): 7.92 nM | GI50 (MOLT-4 leukemia): 4.45 nM | TGI (MOLT-4 leukemia): 223 nM | GI50 (NCI-H23 lung): 1.74 nM | TGI (NCI-H23 lung): 5.41 nM | GI50 (NCI-H522 lung): 10.9 nM | TGI (NCI-H522 lung): 35.4 nM | GI50 (OVCAR-3 ovarian): 27.4 nM | TGI (OVCAR-3 ovarian): > 10000 nM | GI50 (OVCAR-4 ovarian): 27.5 nM | TGI (OVCAR-4 ovarian): 93.4 nM | GI50 (OVCAR-5 ovarian): 6.88 nM | TGI (OVCAR-5 ovarian): 40.8 nM | GI50 (OVCAR-8 ovarian): 3.29 nM | TGI (OVCAR-8 ovarian): 129 nM | GI50 (PC-3 prostate): 19.7 nM | TGI (PC-3 prostate): 981 nM | GI50 (RPMI-8226 leukemia): 23.2 nM | TGI (RPMI-8226 leukemia): 1840 nM | GI50 (RXF 393 renal): 5.66 nM | TGI (RXF 393 renal): 19 nM | GI50 (SF-268 CNS): 8.99 nM | TGI (SF-268 CNS): 293 nM | GI50 (SF-295 CNS): 2.25 nM | TGI (SF-295 CNS): 6.82 nM | GI50 (SF-539 CNS): 5.25 nM | TGI (SF-539 CNS): 21 nM | GI50 (SK-MEL-2 melanoma): 18.7 nM | TGI (SK-MEL-2 melanoma): 35.2 nM | GI50 (SK-OV-3 ovarian): 15 nM | TGI (SK-OV-3 ovarian): > 10000 nM | GI50 (SN12C renal): 10.5 nM | TGI (SN12C renal): 98.6 nM | GI50 (SNB-19 CNS): 5.79 nM | TGI (SNB-19 CNS): 76.2 nM | GI50 (SNB-75 CNS): 19.7 nM | TGI (SNB-75 CNS): 75 nM | GI50 (SR leukemia): 1.68 nM | TGI (SR leukemia): 39.2 nM | GI50 (SW-620 colon): 2.28 nM | TGI (SW-620 colon): 1480 nM | GI50 (T-47D breast): 14.8 nM | TGI (T-47D breast): > 10000 nM | GI50 (UACC-62 melanoma): 2.2 nM | TGI (UACC-62 melanoma): 10.5 nM
